Laboratory results published in PMC10069031 (European Journal of Medical Research, 2023).
Read-outs that look alike come from different tables or passages of the source.

Target: T1, murine CSF1R (Mus musculus, UniProt P09581)
T1 construct: Western blot analysis of total lysates (40 µg/lane) from mouse RAW264.7 cells treated as indicated; endogenous in cells; host or cells: RAW264.7 (murine macrophages)
T1 sequence (P09581 20-977): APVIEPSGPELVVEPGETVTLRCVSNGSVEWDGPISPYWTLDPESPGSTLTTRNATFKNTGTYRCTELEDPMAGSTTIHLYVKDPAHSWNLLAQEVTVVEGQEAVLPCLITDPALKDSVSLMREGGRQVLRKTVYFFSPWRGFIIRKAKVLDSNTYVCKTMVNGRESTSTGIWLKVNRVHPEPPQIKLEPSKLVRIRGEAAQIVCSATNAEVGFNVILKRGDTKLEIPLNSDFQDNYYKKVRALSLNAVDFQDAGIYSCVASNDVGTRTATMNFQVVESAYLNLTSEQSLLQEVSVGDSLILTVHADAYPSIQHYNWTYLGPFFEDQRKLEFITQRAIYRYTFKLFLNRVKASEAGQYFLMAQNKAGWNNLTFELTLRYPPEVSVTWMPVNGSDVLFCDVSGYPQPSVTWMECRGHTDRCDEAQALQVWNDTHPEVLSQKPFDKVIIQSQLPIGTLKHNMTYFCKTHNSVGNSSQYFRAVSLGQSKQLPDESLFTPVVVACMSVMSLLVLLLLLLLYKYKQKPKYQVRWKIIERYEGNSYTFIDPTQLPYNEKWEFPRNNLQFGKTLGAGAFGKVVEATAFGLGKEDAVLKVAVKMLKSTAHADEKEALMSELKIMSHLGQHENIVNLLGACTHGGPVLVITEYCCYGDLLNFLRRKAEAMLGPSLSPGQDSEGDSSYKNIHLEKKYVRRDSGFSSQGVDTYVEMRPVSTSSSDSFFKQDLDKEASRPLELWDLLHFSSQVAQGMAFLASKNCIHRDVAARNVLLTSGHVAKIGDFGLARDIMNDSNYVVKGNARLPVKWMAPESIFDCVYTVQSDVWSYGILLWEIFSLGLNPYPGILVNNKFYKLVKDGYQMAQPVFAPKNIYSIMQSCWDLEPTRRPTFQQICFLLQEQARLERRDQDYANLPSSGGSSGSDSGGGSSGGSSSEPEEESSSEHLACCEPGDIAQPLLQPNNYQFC
Experiment: CSF1R inhibition in RAW264.7 cells (western blot of pCSF1R)
Format: cell-based
Protocol: RAW264.7 cells (10^6) were seeded into cell culture dishes 6 cm in diameter and incubated in 4 mL RPMI/10% fetal bovine serum (Biochrom) for 24 h at 37 °C in a humidified 5% CO2 atmosphere. Cells were washed once with phosphate-buffered saline (PBS) and starved in 3 mL RPMI/0.1% bovine serum albumin for another 24 h. Cells were then treated for 1 h at 37 °C with drugs at the indicated final concentrations, with 0.5% DMSO as vehicle control, or left untreated, and finally stimulated for 2 min at 37 °C with 100 ng/mL recombinant mouse CSF1 (R&D Systems) by adding 1 mL prewarmed starving medium containing 400 ng/mL CSF1. Dishes were placed on ice and cells were immediately washed with ice-cold PBS and lysed with 50 µL lysis buffer (50 mM HEPES pH 7.5, 150 mM NaCl, 1.5 mM MgCl2, 10% glycerol, 1% Triton X-100, 0.5% desoxycholate, 0.2% sodium dodecyl sulfate, 1 mM ethylene glycol-bis[β-aminoethyl ether]-N,N,N′,N′-tetraacetic acid, 100 mM NaF, 10 mM Na4P2O7, 1 mM Na3VO4, 1% Phosphatase Inhibitor Cocktail 3 [Sigma-Aldrich], 1 mM phenylmethyl sulfonyl fluoride, Complete Protease Inhibitor Cocktail [Roche CustomBiotech; 1 tablet/10 mL], and 50 U/mL Benzonase [Sigma-Aldrich]). Lysed cells were scraped into Eppendorf tubes, incubated on ice for 20 min, and centrifuged at 4 °C for 10 min at 13,000 rpm; supernatants (lysates) were transferred into new tubes and stored at −80 °C.
Protein concentrations were determined using Pierce bicinchoninic acid assay (Thermo Fisher Scientific) and 40 µg/lane of total lysate was separated by SDS-PAGE on 4–12% Criterion XT Bis–Tris Gels (Bio-Rad) and subsequently transferred to polyvinylidene difluoride membranes using the Trans Blot Turbo Blotting System (Bio-Rad). For antigen detection, membranes were blocked with PBS Odyssey blocking reagent (LI-COR Biosciences) for 1 h at room temperature (RT). Primary antibodies were incubated overnight at 4 °C and the fluorescent secondary antibodies were incubated for 1 h at RT. After each antibody incubation, blots were washed with PBS with 0.05% Tween 20 (Carl Roth) for 15–30 min at RT. Fluorescent signals were quantitatively captured using the Odyssey DLx Infrared Imaging System (LI-COR Biosciences) and the half-maximal inhibitory concentration (IC50) values were calculated using GraphPad software (version 7 or newer).

CNC(=O)c1cc(Oc2ccc(NC(=O)Nc3ccc(Cl)c(C(F)(F)F)c3)c(F)c2)ccn1 [REG, Regorafenib]
IC50 (RAW264.7 cells, drug 1 h, CSF1 100 ng/mL 2 min, mean ± SD (replicates), M-4, M-5 from pCSF1R bands without relating to total CSF1R, read-out: Mean kinase IC50 values: P(Y559)CSF1R [WB]): 59 ± 16 nM
IC50 (RAW264.7 cells, drug 1 h, CSF1 100 ng/mL 2 min, mean ± SD (replicates), M-4, M-5 from pCSF1R bands without relating to total CSF1R, read-out: Mean kinase IC50 values: P(Y721)CSF1R [WB]): 27 ± 14 nM
IC50 (approximate value of the discussion, read-out: IC50, murine CSF1R in RAW264.7 macrophages): ~30 nM
